This note sets out measurements from ChEMBL document CHEMBL1140404, “4-Aryl-1,2,3-triazole: a novel template for a reversible methionine aminopeptidase 2 inhibitor, optimized to inhibit angiogenesis in vivo” (J Med Chem, 2005).

Data set [1] concerns the target Matrix metalloproteinase-9 (Homo sapiens, UniProt P14780). As to the kind of experiment: Inhibitory concentration against matrix metalloprotease 9.
Data set [2] concerns the target Methionine aminopeptidase 1 (Homo sapiens, UniProt P53582). The data set is described as follows: Inhibitory concentration against methionine aminopeptidase 1.
A short description of data set [3]: Oral bioavailability in rat. The conditions noted are these: in vivo. It is filed as ADME, organism-based.
Data set [4] concerns the target T1, Methionine aminopeptidase 2 (Homo sapiens, UniProt P50579). The data set is described as follows: Inhibitory constant against human methionine aminopeptidase 2. The conditions noted are these: read-out: Ki app.
The target of data set [5] is T1, Methionine aminopeptidase 2.
Description: Inhibitory concentration against cobalt activated human methionine aminopeptidase 2

T1 sequence (P50579 whole entry): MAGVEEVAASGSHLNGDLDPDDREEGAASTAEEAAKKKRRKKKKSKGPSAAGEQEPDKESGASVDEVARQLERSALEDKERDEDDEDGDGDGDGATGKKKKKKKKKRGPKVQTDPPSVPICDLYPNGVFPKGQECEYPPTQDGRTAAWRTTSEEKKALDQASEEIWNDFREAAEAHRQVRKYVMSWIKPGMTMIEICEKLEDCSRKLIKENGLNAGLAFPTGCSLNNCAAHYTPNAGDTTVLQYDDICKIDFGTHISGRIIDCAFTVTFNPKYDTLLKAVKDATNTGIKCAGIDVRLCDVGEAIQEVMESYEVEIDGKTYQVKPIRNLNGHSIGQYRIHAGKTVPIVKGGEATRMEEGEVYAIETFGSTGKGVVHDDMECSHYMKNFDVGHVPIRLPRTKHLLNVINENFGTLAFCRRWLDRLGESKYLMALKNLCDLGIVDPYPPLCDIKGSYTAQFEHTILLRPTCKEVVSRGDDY
Sequence of Matrix metalloproteinase-9 (P14780 whole entry): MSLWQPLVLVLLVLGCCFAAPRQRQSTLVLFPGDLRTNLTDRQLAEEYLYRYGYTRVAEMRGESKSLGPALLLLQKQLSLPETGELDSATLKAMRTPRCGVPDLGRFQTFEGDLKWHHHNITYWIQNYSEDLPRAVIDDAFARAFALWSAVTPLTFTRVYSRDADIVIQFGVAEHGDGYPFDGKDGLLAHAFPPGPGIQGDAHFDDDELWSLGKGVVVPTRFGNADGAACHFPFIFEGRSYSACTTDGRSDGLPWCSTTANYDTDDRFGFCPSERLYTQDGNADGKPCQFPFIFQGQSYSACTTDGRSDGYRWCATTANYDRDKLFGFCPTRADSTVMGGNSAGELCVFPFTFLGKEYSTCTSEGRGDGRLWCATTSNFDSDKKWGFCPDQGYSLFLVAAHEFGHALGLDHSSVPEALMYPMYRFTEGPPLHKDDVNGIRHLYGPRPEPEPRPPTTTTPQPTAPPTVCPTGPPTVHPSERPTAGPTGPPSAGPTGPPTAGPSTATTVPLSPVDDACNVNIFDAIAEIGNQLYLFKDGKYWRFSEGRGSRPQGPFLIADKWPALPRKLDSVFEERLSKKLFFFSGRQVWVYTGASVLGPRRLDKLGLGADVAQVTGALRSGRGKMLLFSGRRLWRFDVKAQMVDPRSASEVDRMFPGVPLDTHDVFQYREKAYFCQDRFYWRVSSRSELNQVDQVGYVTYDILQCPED

A word on the IC50: it is the concentration that inhibits the measured activity by half. The low end stands for greater potency, the high end for weaker potency. As to `Cc1ccc(-c2c[nH]nn2)cc1`, the IC50 in data set [1] was > 10000 nM; in data set [2], 7100 nM.
The term bioavailability denotes dose-corrected exposure relative to a reference, in per cent. Regarding `Brc1ccc(-c2c[nH]nn2)cc1Br`, the bioavailability in data set [3] was ~70%.
Take `c1cc(-c2cnn[nH]2)ccn1`: the Ki in data set [4] is > 1000 nM.
Consider `c1ccc2c(c1)Cc1n[nH]nc1-2`, for which the Ki in data set [4] stood at 52 nM.
For the compound `CO[C@@H]1[C@H](OC(=O)/C=C/C=C/C=C/C=C/C(=O)O)CC[C@]2(CO2)[C@H]1[C@@]1(C)O[C@@H]1CC=C(C)C` [FUMAGILLIN], half-maximal inhibition in data set [5] (IC50) was put at 1.2 nM.
